Counter-ions that a name gives are not always drawn.
Tested on: HiBiT-HSD17β13 fusion protein (N-terminal HiBiT-tagged HSD17β13 isoform D) in Huh7 HiBiT-HSD17β13 OE cells
Experiment: Whole-cell Huh7-HSD17B13 HiBiT assay (degrader potency and maximal efficacy, luminescence readout)
Assay type: cell-based, human
Details: 24 hour incubation, geometric mean, * = geometric mean for all forms tested (parent and salt forms); for DC50: read-out: Huh7_HIBIT-HSD17β13_DC50 GMean DC50; for Huh7_HIBIT-HSD17β13_DC50 GMean Asymptote Maximum: max. concentration 1 μM
In short: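 Luminescence from lytic HiBiT detection tracked residual HiBiT-HSD17β13 (isoform D, N-terminal tag) in a stable Huh7 overexpressing clone after 24 h compound treatment at 37° C, 11 concentrations up to 1 μM final. Percent effect used DMSO (zero) and parental Huh7 (high) wells; four-parameter fit gave 50% degradation; viability checked by CellTiter-Glo.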

| Compound | DC50 | Huh7_HIBIT-HSD17β13_DC50 GMean Asymptote Maximum |
| --- | --- | --- |
| O=C1CCC(N2Cc3c(OCc4ccc(CN5CCN(c6ccc7cn(C8CCC(CNC(=O)c9cc(F)c(O)c(F)c9)CC8)nc7c6)CC5)cc4)cccc3C2=O)C(=O)N1 (racemic) [Example 6, N-{[(1r,4r)-4-{6-[4-({4-[({2-[(3RS)-2,6-Dioxopiperidin-3-yl]-1-oxo-2,3-dihydro-1H-isoindol-4-yl}oxy)methyl]phenyl}methyl)piperazin-1-yl]-2H-indazol-2-yl}cyclohexyl]methyl}-3,5-difluoro-4-hydroxybenzamide] | 1.4 nM | 76* % |
| Cn1c(=O)n(C2CCC(=O)NC2=O)c2ccc(CCN3CCN(c4cncc(-c5ccc6cn(C7CCC(CNC(=O)c8cc(F)c(O)c(F)c8F)CC7)nc6c5)n4)CC3)cc21.O=C(O)C(F)(F)F (racemic) [Example 14, N-{[(1r,4r)-4-(6-{6-[4-(2-{1-[(3RS)-2,6-Dioxopiperidin-3-yl]-3-methyl-2-oxo-2,3-dihydro-1H-benzimidazol-5-yl}ethyl)piperazin-1-yl]pyrazin-2-yl}-2H-indazol-2-yl)cyclohexyl]methyl}-2,3,5-trifluoro-4-hydroxybenzamide, trifluoroacetate salt] | 0.23 nM | 85% |
| Cn1c(=O)n(C2CCC(=O)NC2=O)c2ccc(CCCN3CCN(c4nccc(-c5ncc(C67CCC(CNC(=O)c8cc(F)c(O)c(F)c8F)(CC6)CC7)o5)n4)CC3)cc21 (racemic) [Example 18, N-{[4-(2-{2-[4-(3-{1-[(3RS)-2,6-Dioxopiperidin-3-yl]-3-methyl-2-oxo-2,3-dihydro-1H-benzimidazol-5-yl}propyl)piperazin-1-yl]pyrimidin-4-yl}-1,3-oxazol-5-yl)bicyclo[2.2.2]octan-1-yl]methyl}-2,3,5-trifluoro-4-hydroxybenzamide] | 0.58 nM | 82% |
| Cc1ccc(C(=O)N2CCC3(CC2)CC(N2CCN(c4ncc(-c5ccc6cn(C7CCC(CNC(=O)c8cc(F)c(O)c(F)c8F)CC7)nc6c5)cn4)CC2)CO3)cc1N1CCC(=O)NC1=O (stereo not drawn) [Example 11, N-{[(1r,4r)-4-{6-[2-(4-{8-[3-(2,4-Dioxo-1,3-diazinan-1-yl)-4-methylbenzoyl]-1-oxa-8-azaspiro[4.5]decan-3-yl}piperazin-1-yl)pyrimidin-5-yl]-2H-indazol-2-yl}cyclohexyl]methyl}-2,3,5-trifluoro-4-hydroxybenzamide] | 0.94 nM | 81% |
| Cn1c(=O)n(C2CCC(=O)NC2=O)c2ccc(CCCN3CCN(c4nccc(-c5nc(C6CCC(CNC(=O)c7cc(F)c(O)c(F)c7F)CC6)no5)n4)CC3)cc21.O=C(O)C(F)(F)F (racemic) [Example 17, N-{[(1r,4r)-4-(5-{2-[4-(3-{1-[(3RS)-2,6-Dioxopiperidin-3-yl]-3-methyl-2-oxo-2,3-dihydro-1H-benzimidazol-5-yl}propyl)piperazin-1-yl]pyrimidin-4-yl}-1,2,4-oxadiazol-3-yl)cyclohexyl]methyl}-2,3,5-trifluoro-4-hydroxybenzamide, trifluoroacetate salt] | 0.47 nM | 85% |

More lines, main results first:

| DC50 | Compound | Huh7_HIBIT-HSD17β13_DC50 GMean Asymptote Maximum |
| --- | --- | --- |
| 2.2 nM | O=C1CCC(N2Cc3c(OCc4ccc(CN5CCC(CCCOc6ccc(-c7noc([C@]89CC[C@](CNC(=O)c%10cc(F)c(O)c(F)c%10F)(CC8)CC9)n7)nn6)CC5)cc4)cccc3C2=O)C(=O)N1 (mixture of isomers) [Example 36, N-({4-[3-(6-{3-[1-({4-[{{2-[(3RS)-2,6-dioxopiperidin-3-yl]-1-oxo-2,3-dihydro-1H-isoindol-4-yl}oxy)methyl]phenyl}methyl)piperi-din-4-yl]propoxy}pyridazin-3-yl)-1,2,4-oxadiazol-5-yl]bicyclo[2.2.2]octan-1-yl}methyl)-2,3,5-trifluoro-4-hydroxybenzamide, trifluoroacetate salt] | 86% |
| 6.1 nM | Cc1ccc(C(=O)N2CCN(C3CCN(c4ncc(-c5ccc6cn([C@H]7CC[C@H](CNC(=O)c8cc(F)c(O)c(F)c8F)CC7)nc6c5)cn4)CC3)CC2)cc1N1CCC(=O)NC1=O [Example 90, N-{[(1r,4r)-4-{6-[2-(4-{4-[3-(2,4-dioxo-1,3-diazinan-1-yl)-4-methylbenzoyl]piperazin-1-yl}piperidin-1-yl)pyrimidin-5-yl]-2H-indazol-2-yl}cyclohexyl]methyl}-2,3,5-trifluoro-4-hydroxybenzamide] | 60* % |
| 0.59 nM | Cn1c(=O)n(C2CCC(=O)NC2=O)c2ccc(CN3CCN(c4ncc(-c5ccn6cc([C@]78CC[C@](CNC(=O)c9cc(F)c(O)c(F)c9F)(CC7)CC8)nc6c5)cn4)CC3)cc21 (mixture of isomers) [Example 84, N-{[4-(7-{2-[4-({1-[(3RS)-2,6-dioxopiperidin-3-yl]-3-methyl-2-oxo-2,3-dihydro-1H-benzimidazol-5-yl}methyl)piperazin-1-yl]pyrimidin-5-yl}imidazo[1,2-a]pyridin-2-yl)bicyclo[2.2.2]octan-1-yl]methyl}-2,3,5-trifluoro-4-hydroxybenzamide] | 83% |
| 2.4 nM | Cc1ccc(C(=O)N2CCC3(CC2)CC(N2CCN(c4cnc(-c5ccc6cn([C@H]7CC[C@H](CNC(=O)c8cc(F)c(O)c(F)c8F)CC7)nc6c5)cn4)CC2)CO3)cc1N1CCC(=O)NC1=O (stereo partly drawn) [Example 71, N-{[(1r,4r)-4-{6-[5-(4-{8-[3-(2,4-dioxo-1,3-diazinan-1-yl)-4-methylbenzoyl]-1-oxa-8-azaspiro[4.5]decan-3-yl}piperazin-1-yl)pyrazin-2-yl]-2H-indazol-2-yl}cyclohexyl]methyl}-2,3,5-trifluoro-4-hydroxybenzamide, trifluoroacetate salt] | 76% |
| 0.21 nM | Cn1c(=O)n(C2CCC(=O)NC2=O)c2ccc(CCCN3CCN(c4ccc5cn([C@]67CC[C@](CNC(=O)c8cc(F)c(O)c(F)c8F)(CC6)CC7)nc5c4)CC3)cc21 (mixture of isomers) [Example 94, N-[(4-{6-[4-(3-{1-[(3RS)-2,6-dioxopiperidin-3-yl]-3-methyl-2-oxo-2,3-dihydro-1H-benzimidazol-5-yl}propyl)piperazin-1-yl]-2H-indazol-2-yl}bicyclo[2.2.2]octan-1-yl)methyl]-2,3,5-trifluoro-4-hydroxybenzamide] | 84% |
| 2.4 nM | O=C1CCN(c2cnn3cc(CCCN4CCN(c5ccc6cn([C@]78CC[C@](CNC(=O)c9cc(F)c(O)c(F)c9F)(CC7)CC8)nc6c5)CC4)ccc23)C(=O)N1 [Example 97, N-({4-[6-(4-{3-[3-(2,4-dioxo-1,3-diazinan-1-yl)pyrazolo[1,5-a]pyridin-6-yl]propyl}piperazin-1-yl)-2H-indazol-2-yl]bicyclo[2.2.2]octan-1-yl}methyl)-2,3,5-trifluoro-4-hydroxybenzamide, trifluoroacetate salt] | 76% |
| 0.88 nM | Cn1c(=O)n(C2CCC(=O)NC2=O)c2ccc(CCCN3CC[C@@H]4CN(c5ccc6cn([C@H]7CC[C@H](CNC(=O)c8cc(F)c(O)c(F)c8F)CC7)nc6c5)C[C@H]4C3)cc21 (mixture of isomers) [Example 101, N-{[(1r,4r)-4-{6-[(3aR,7aS)-5-(3-{1-[(3RS)-2,6-dioxopiperidin-3-yl]-3-methyl-2-oxo-2,3-dihydro-1H-benzimidazol-5-yl}propyl)octahydro-2H-pyrrolo[3,4-c]pyridin-2-yl]-2H-indazol-2-yl}cyclohexyl]methyl}-2,3,5-trifluoro-4-hydroxybenzamide, formate salt] | 74% |

From patent US20240238425A1, “HSD17B13 Inhibitors and/or Degraders” (Pfizer Inc., priority 2022, published 2024)
